Measured values published in patent publication US6858625B1, “Quinolinecarboxylic acid derivative or salts thereof” (Wakunaga Pharmaceutical Co., Ltd., priority 1999, dated 2005).
Values after ≈ are worked out from the molar mass of the structure shown. Each block holds one compound with its values, some of them ahead of it.

Assays:
B. subtilis ATCC6633 = test: Minimum growth inhibitory concentration (MIC), standard method of the Japan Society of Chemotherapy; assay type: cell-based; conditions: Bacillus subtilis
Experimental: (§1) Their minimum growth inhibitory concentrations (MICs: μg/mL) were determined in accordance with the standard method of the Japan Society of Chemotherapy [Chemotherapy, 29(1), 76 (1981)].

P. aeruginosa E-2 = test: as above; assay type: cell-based; conditions: Pseudomonas aeruginosa, E2
Experimental: as §1

E. coli NIHJ-JC2 = test: as above; assay type: cell-based; conditions: Escherichia coli, NIHJJC2
Experimental: as §1

S. epidermidis IFO12293 = test: as above; assay type: cell-based; conditions: Staphylococcus epidermidis
Experimental: as §1

P. vulgaris IFO3167 = test: as above; assay type: cell-based; conditions: Proteus vulgaris
Experimental: as §1

P. aeruginosa IFO3445 = test: as above; assay type: cell-based; conditions: Pseudomonas aeruginosa
Experimental: as §1

S. aureus 209P = test: as above; assay type: cell-based; conditions: Staphylococcus aureus
Experimental: as §1

S. marcescens IFO3736 = test: as above; assay type: cell-based; conditions: Serratia marcescens
Experimental: as §1

K. pneumoniae KC-1 = test: as above; assay type: cell-based; conditions: Klebsiella pneumoniae, KC1
Experimental: as §1

M. luteus IFO12708 = test: as above; assay type: cell-based; conditions: Micrococcus luteus
Experimental: as §1

E. faecalis IFO12580 = test: as above; assay type: cell-based; conditions: Enterococcus faecalis
Experimental: as §1

MRSA W200 = test: as above; assay type: cell-based; conditions: Staphylococcus aureus
Experimental: as §1

[1] = Phototoxicity test (ear abnormality after UV exposure); assay type: in vivo, ICR mice; conditions: 40 mg/kg i.v., 4 h UV 320-400 nm; for Ear abnormality (point): 0 = no abnormality to 3 = severe erythema or edema; for Ear abnormality (frequency): affected/total mice
Experimental: A phototoxicity test was performed by the following procedure. Female ICR mice (5 to 6 weeks old) were intravenously administered with the test compounds (40 mg/kg/10 mL), respectively, and were exposed for 4 hours to ultraviolet rays (320 to 400 nm, 1.8 mW/cm^2/sec). […] Ear abnormality was ranked by the following standards: no abnormality (0 point), mild erythema (1 point), medium erythema (2 points), and severe erythema or edema (3 points) The results are presented in Table 2.

[2] = test system: Isolated coccus 5 (clinically-isolated quinolone resistant pneumococci); test: MIC against clinically-isolated quinolone resistant pneumococci, agar plates with 5% defibrinated sheep blood; assay type: cell-based; conditions: Isolated coccus 5, quinolone resistant pneumococcus
Experimental: (§2) Using agar plates added with 5% defibrinated sheep blood, minimum growth inhibition concentrations (MICs; μg/mL) against certain pneumococci were determined in accordance with the standard method of the Japan Society of Chemotherapy [Chemotherapy, 29(1), 76 (1981)].

[3] = test system: Isolated coccus 1 (clinically-isolated quinolone resistant pneumococci); test: as above; assay type: cell-based; conditions: Isolated coccus 1, quinolone resistant pneumococcus
Experimental: as §2

[4] = In vivo pharmacokinetic study (absorption and excretion in dogs); parameters: species or system beagles; conditions: for AUC(0-t) / Cmax / Tmax / half-life / Urinary excretion rate: male beagles, per os; for AUC(0-t) / Cmax / Tmax / half-life: 10 mg/mL/kg in 0.5% methyl cellulose; for Urinary excretion rate: 10 mg/mL/kg, urine up to 24th hour
Experimental: An investigation was made on the absorption and excretion of the compounds of the present invention in and from dogs. A 0.5% suspension of one of the test compounds in methyl cellulose (10 mg/mL/kg) was forcedly administered per os to 2-4 years old, male beagles fasted for 16 to 17 hours. After the administration, blood samples were collected on the 0.25th, 0.5th, 1st, 2nd, 4th, 6th, 8th and 24th hours, and serum samples were obtained. To determine urinary excretion rates, urine samples were also collected up to 24th hour after the administration. The concentrations of the test compound in the serum samples and urine samples were measured by the paper disk method making use of Bacillus subtilis ATCC6633 as a test bacterium, and the absorption and excretion were ranked.

[5] = beagle, dog, po, 10 mg/kg, serum

SMILES: O=C(O)c1cn(C2CC2)c2cc(N3CCNCC3)c(F)cc2c1=O [CPFX, 1-cyclopropyl-6-fluoro-7-(1-piperadinyl)-1,4-dihydro-4-oxoquinoline-3-carboxylic acid]
MIC (B. subtilis ATCC6633): 0.05 µg/mL (≈ 0.151 µM)
MIC (P. aeruginosa E-2): 0.78 µg/mL (≈ 2.35 µM)
MIC (E. coli NIHJ-JC2): 0.025 µg/mL (≈ 0.0754 µM)
MIC (S. epidermidis IFO12293): 1.56 µg/mL (≈ 4.71 µM)
MIC (P. vulgaris IFO3167): 0.05 µg/mL (≈ 0.151 µM)
MIC (P. aeruginosa IFO3445): 0.39 µg/mL (≈ 1.18 µM)
MIC (S. aureus 209P): 0.2 µg/mL (≈ 0.604 µM)
MIC (S. marcescens IFO3736): 0.2 µg/mL (≈ 0.604 µM)
MIC (K. pneumoniae KC-1): 0.05 µg/mL (≈ 0.151 µM)
MIC (M. luteus IFO12708): 3.13 µg/mL (≈ 9.45 µM)
MIC (E. faecalis IFO12580): 1.56 µg/mL (≈ 4.71 µM)
MIC (MRSA W200): 0.78 µg/mL (≈ 2.35 µM)

SMILES: CNC1CN(c2c(F)cc3c(=O)c(C(=O)O)cn(-c4nc(N)c(F)cc4F)c3c2Br)C1 [Comparative Compound 1, 1-(6-amino-3,5-difluoropyridin-2-yl)-8-bromo-7-(3-methylaminoazetidin-1-yl)-6-fluoro-4-oxo-1,4-dihydroquinoline-3-carboxylic acid]
MIC (B. subtilis ATCC6633): 0.05 µg/mL (≈ 0.1 µM)
MIC (P. aeruginosa E-2): 0.78 µg/mL (≈ 1.57 µM)
MIC (E. coli NIHJ-JC2): 0.013 µg/mL (≈ 0.0261 µM)
MIC (S. epidermidis IFO12293): 0.05 µg/mL (≈ 0.1 µM)
MIC (P. vulgaris IFO3167): 0.1 µg/mL (≈ 0.201 µM)
MIC (P. aeruginosa IFO3445): 0.39 µg/mL (≈ 0.783 µM)
MIC (S. aureus 209P): 0.013 µg/mL (≈ 0.0261 µM)
MIC (S. marcescens IFO3736): 1.56 µg/mL (≈ 3.13 µM)
MIC (K. pneumoniae KC-1): 0.025 µg/mL (≈ 0.0502 µM)
MIC (M. luteus IFO12708): 0.39 µg/mL (≈ 0.783 µM)
MIC (E. faecalis IFO12580): 0.39 µg/mL (≈ 0.783 µM)
MIC (MRSA W200): 0.025 µg/mL (≈ 0.0502 µM)
Ear abnormality (point) ([1]; 0 hour after exposure): 0 point
Ear abnormality (frequency) ([1]; 0 hour after exposure): 0/3
Ear abnormality (point) ([1]; 24 hours after exposure): 0 point
Ear abnormality (frequency) ([1]; 24 hours after exposure): 0/3
Ear abnormality (point) ([1]; 48 hours after exposure): 0 point
Ear abnormality (frequency) ([1]; 48 hours after exposure): 0/3
MIC [2]: 0.5 µg/mL (≈ 1 µM)
MIC [3]: 0.06 µg/mL (≈ 0.12 µM)
AUC(0-t) [4, 5]: 8540 ng·h/mL
Cmax [4, 5]: 2350 ng/mL
Tmax [4, 5]: 0.5 h
half-life [4, 5]: 2 h
Urinary excretion rate [4]: 14.8%

SMILES: CCNC1CN(c2c(F)cc3c(=O)c(C(=O)O)cn(-c4nc(N)c(F)cc4F)c3c2Cl)C1 [Comparative Compound 2, 1-(6-amino-3,5-difluoro-pyridin-2-yl)-8-chloro-7-(3-ethylaminoazetidin-1-yl)-6-fluoro-4-oxo-1,4-dihydroquinoline-3-carboxylic acid]
MIC (B. subtilis ATCC6633): 0.025 µg/mL (≈ 0.0534 µM)
MIC (P. aeruginosa E-2): 1.56 µg/mL (≈ 3.33 µM)
MIC (E. coli NIHJ-JC2): 0.025 µg/mL (≈ 0.0534 µM)
MIC (S. epidermidis IFO12293): 0.05 µg/mL (≈ 0.107 µM)
MIC (P. vulgaris IFO3167): 0.2 µg/mL (≈ 0.428 µM)
MIC (P. aeruginosa IFO3445): 0.39 µg/mL (≈ 0.834 µM)
MIC (S. aureus 209P): 0.013 µg/mL (≈ 0.0278 µM)
MIC (S. marcescens IFO3736): 1.56 µg/mL (≈ 3.33 µM)
MIC (K. pneumoniae KC-1): 0.05 µg/mL (≈ 0.107 µM)
MIC (M. luteus IFO12708): 0.78 µg/mL (≈ 1.67 µM)
MIC (E. faecalis IFO12580): 0.78 µg/mL (≈ 1.67 µM)
MIC (MRSA W200): 0.025 µg/mL (≈ 0.0534 µM)
Ear abnormality (point) ([1]; 0 hour after exposure): 0.7 point
Ear abnormality (frequency) ([1]; 0 hour after exposure): 2/3
Ear abnormality (point) ([1]; 24 hours after exposure): 0 point
Ear abnormality (frequency) ([1]; 24 hours after exposure): 0/3
Ear abnormality (point) ([1]; 48 hours after exposure): 0 point
Ear abnormality (frequency) ([1]; 48 hours after exposure): 0/3

SMILES: CCNC1CN(c2c(F)cc3c(=O)c(C(=O)O)cn(-c4nc(N)c(F)cc4F)c3c2Br)C1 [Compound 1, 1-(6-amino-3,5-difluoropyridin-2-yl)-8-bromo-7-(3-ethylaminoazetidin-1-yl)-6-fluoro-4-oxo-1,4-dihydroquinoline-3-carboxylic acid]
MIC (B. subtilis ATCC6633): 0.025 µg/mL (≈ 0.0488 µM)
MIC (P. aeruginosa E-2): 1.56 µg/mL (≈ 3.05 µM)
MIC (E. coli NIHJ-JC2): 0.025 µg/mL (≈ 0.0488 µM)
MIC (S. epidermidis IFO12293): 0.025 µg/mL (≈ 0.0488 µM)
MIC (P. vulgaris IFO3167): 0.1 µg/mL (≈ 0.195 µM)
MIC (P. aeruginosa IFO3445): 0.78 µg/mL (≈ 1.52 µM)
MIC (S. aureus 209P): 0.013 µg/mL (≈ 0.0254 µM)
MIC (S. marcescens IFO3736): 1.56 µg/mL (≈ 3.05 µM)
MIC (K. pneumoniae KC-1): 0.05 µg/mL (≈ 0.0976 µM)
MIC (M. luteus IFO12708): 0.39 µg/mL (≈ 0.761 µM)
MIC (E. faecalis IFO12580): 0.39 µg/mL (≈ 0.761 µM)
MIC (MRSA W200): 0.013 µg/mL (≈ 0.0254 µM)
Ear abnormality (point) ([1]; 0 hour after exposure): 0 point
Ear abnormality (frequency) ([1]; 0 hour after exposure): 0/3
Ear abnormality (point) ([1]; 24 hours after exposure): 0 point
Ear abnormality (frequency) ([1]; 24 hours after exposure): 0/3
Ear abnormality (point) ([1]; 48 hours after exposure): 0 point
Ear abnormality (frequency) ([1]; 48 hours after exposure): 0/3
MIC [2]: 0.12 µg/mL (≈ 0.234 µM)
MIC [3]: 0.03 µg/mL (≈ 0.0586 µM)
AUC(0-t) [4, 5]: 22800 ng·h/mL
Cmax [4, 5]: 4820 ng/mL
Tmax [4, 5]: 1 h
half-life [4, 5]: 3.8 h
Urinary excretion rate [4]: 19.8%
bioavailability ([4]; male, beagle, dog, serum, po, 10 mg/kg, administered orally, calculated from an AUC up to 24th hour after administration): 78%

Second part, the compound after the results:

AUC(0-t) [4, 5]: 17600 ng·h/mL
Cmax [4, 5]: 3730 ng/mL
Tmax [4, 5]: 1 h
half-life [4, 5]: 4.8 h
Urinary excretion rate [4]: 17.4%
SMILES: CCNC1CN(c2c(F)cc3c(=O)c(C(=O)O)cn(-c4nc(N)c(F)cc4F)c3c2Br)C1.O=C(O)/C=C\C(=O)O [Compound 2, 1-(6-amino-3,5-difluoropyridin-2-yl)-8-bromo-7-(3-ethylaminoazetidin-1-yl)-6-fluoro-4-oxo-1,4-dihydroquino line-3-carboxylic acid maleate]

MIC (B. subtilis ATCC6633): 0.1 µg/mL (≈ 0.277 µM)
MIC (P. aeruginosa E-2): 1.56 µg/mL (≈ 4.32 µM)
MIC (E. coli NIHJ-JC2): 0.05 µg/mL (≈ 0.138 µM)
MIC (S. epidermidis IFO12293): 0.78 µg/mL (≈ 2.16 µM)
MIC (P. vulgaris IFO3167): 0.05 µg/mL (≈ 0.138 µM)
MIC (P. aeruginosa IFO3445): 0.78 µg/mL (≈ 2.16 µM)
MIC (S. aureus 209P): 0.2 µg/mL (≈ 0.553 µM)
MIC (S. marcescens IFO3736): 0.78 µg/mL (≈ 2.16 µM)
MIC (K. pneumoniae KC-1): 0.1 µg/mL (≈ 0.277 µM)
MIC (M. luteus IFO12708): 0.78 µg/mL (≈ 2.16 µM)
MIC (E. faecalis IFO12580): 1.56 µg/mL (≈ 4.32 µM)
MIC (MRSA W200): 0.39 µg/mL (≈ 1.08 µM)
MIC [2]: 32 µg/mL (≈ 88.6 µM)
MIC [3]: 2 µg/mL (≈ 5.53 µM)
SMILES: C[C@H]1COc2c(N3CCN(C)CC3)c(F)cc3c(=O)c(C(=O)O)cn1c23 [LVFX, S(−)-9-fluoro-2,3-dihydro-3-methyl-10-(4-methyl-1-piperazinyl)-7-oxo-7H-pyrido[1,2,3-de][1,4]benzoxazine-6-carboxylic acid]
